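48-hour exposure; five concentrations; linearly interpolated endpoints. GI50: concentration for 50% inhibition of growth. TGI denotes the concentration required for complete inhibition of growth.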
Key:
Assay in all cases: DTP human tumour cell line panel, 48 h
[1] = tested on: NCI-H460 lung
[2] = tested on: OVCAR-3 ovarian
[3] = tested on: HOP-62 NSCLC
[4] = tested on: U251 CNS
[5] = tested on: MDA-MB-435
[6] = tested on: KM12 colon
[7] = tested on: BT-549 breast
[8] = tested on: NCI/ADR-RES ovarian
[9] = tested on: UACC-257 melanoma
[10] = tested on: SNB-75 CNS

Row | SMILES | TGI [1] [µM] | TGI [2] [µM] | TGI [3] [µM] | TGI [4] [µM] | TGI [5] [µM] | TGI [6] [µM] | TGI [7] [µM] | TGI [8] [µM] | TGI [9] [µM] | TGI [10] [µM] | GI50 [2] [µM] | GI50 [3] [nM] | GI50 [5] [nM] | GI50 [6] [µM] | GI50 [7] [µM] | GI50 [9] [nM] | GI50 [1] [nM] | GI50 [4] [nM] | GI50 [10] [nM] | GI50 [8] [nM]
1 | CN(C)C(=O)Oc1ccc(C(=S)Nc2ccccc2)cc1 | > 100 | > 100 | > 100 | > 100 | > 100 | > 100 | 79.7 | 91.8 | > 100 | – | – | – | – | – | – | – | – | – | – | –
2 | COc1ccc2c(c1)CC[C@@H]1C2CC[C@]2(C)C(=C=CP(=O)(O)O)CCC12 (stereo not given in full) | > 100 | > 100 | > 100 | > 100 | > 100 | > 100 | – | > 100 | > 100 | > 100 | – | – | – | – | – | – | – | – | – | –
3 | CCN(CC)CCNc1ccc([N+](=O)[O-])c2sc3cc(Cl)ccc3c(=O)c12 | – | 32.3 | > 100 | – | > 100 | 53.6 | > 100 | – | 4.96 | – | 4.62 | 2700 | 2830 | 6.77 | 17.7 | 2080 | – | – | – | –
4 | COc1cc2c(cc1OCCCOc1ccc(-c3cc4ccccc4c4ccccc34)cc1)N=C[C@@H]1CCCN1C2=O | 2.21 | 0.786 | – | 2.11 | 1.31 | 2.06 | 2.05 | 1.98 | 3.1 | 1.41 | 0.252 | – | 343 | 0.787 | 0.278 | 1570 | 1040 | 910 | 261 | 716
5 | CSc1nc(C)c2c(n1)N(c1ccc(Cl)cc1)CC2 | > 100 | > 100 | > 100 | > 100 | > 100 | > 100 | – | > 100 | > 100 | 38.8 | – | – | – | – | – | – | – | – | – | –
6 | Cc1ncc(CSC(=N)N)n1Cc1ccccc1 | > 100 | > 100 | > 100 | > 100 | > 100 | > 100 | > 100 | > 100 | > 100 | – | – | – | – | – | – | – | – | – | – | –
7 | COC(=O)C(NC(=O)c1ccccc1)C(c1c(O)cc(O)cc1O)P(=O)(OC)OC (stereo not given) | > 100 | – | > 100 | > 100 | – | > 100 | – | – | > 100 | > 100 | – | – | – | – | – | – | – | – | – | –
8 | O=C(O)C1(C(O)c2ccccc2)SCCCS1 (stereo not given) | > 10 | > 10 | > 10 | > 10 | > 10 | > 10 | > 10 | – | > 10 | > 10 | – | – | – | – | – | – | – | – | – | –
9 | O=c1c2cc(I)ccc2nc(-c2cccs2)n1O | > 100 | 42.8 | > 100 | > 100 | > 100 | > 100 | > 100 | > 100 | > 100 | – | – | – | – | – | – | – | – | – | – | –
10 | Cn1c(NC(=O)NC23CC4CC(CC(C4)C2)C3)nc2ccccc21 | > 100 | > 100 | > 100 | > 100 | – | > 100 | – | – | > 100 | 21.1 | – | – | – | – | – | – | – | – | – | –
11 | O=C1c2ccccc2C(=O)c2sc(Nc3cc(Cl)ccc3Cl)nc21 | 21.5 | 4.07 | 28.9 | 33.5 | 3.85 | 26.5 | – | 7.31 | 7.76 | 38.2 | – | – | – | – | – | – | – | – | – | –
12 | CSc1nc[nH]c1C(N)=S | – | > 100 | > 100 | > 100 | > 100 | > 100 | > 100 | > 100 | > 100 | > 100 | – | – | – | – | – | – | – | – | – | –
13 | O=C(c1ccccc1)c1cc(Cl)ccc1NCn1nnc2ccccc21 | > 100 | > 100 | > 100 | > 100 | – | > 100 | – | – | > 100 | > 100 | – | – | – | – | – | – | – | – | – | –
14 | CCc1cc2c(c3c1CCCC3=O)CC1(C2)Cc2cc(CC)c3c(c2C1)C(=O)CCC3 | > 100 | > 100 | > 100 | > 100 | > 100 | > 100 | – | > 100 | > 100 | > 100 | – | – | – | – | – | – | – | – | – | –
15 | O=C1/C(=C/c2ccc(Cl)cc2)Oc2ccccc21 | > 100 | > 100 | 53.3 | > 100 | > 100 | > 100 | > 100 | – | > 100 | 98.5 | – | – | – | – | – | – | – | – | – | –
16 | COc1ccc(C23OCC(Cc4cc(OC)c(OC)cc42)C3CO)cc1OC (stereo not given) | > 100 | > 100 | > 100 | > 100 | > 100 | > 100 | > 100 | > 100 | – | > 100 | – | – | – | – | – | – | – | – | – | –
17 | c1cncc([O][Ge]([O]c2cccnc2)([O]c2cccnc2)[O]c2cccnc2)c1 | > 100 | > 100 | – | > 100 | – | > 100 | – | – | > 100 | > 100 | > 100 | – | – | > 100 | – | > 100000 | > 100000 | > 100000 | > 100000 | –
18 | COc1ccc(CC[N+]2(C)COc3cc4oc(=O)cc(C)c4cc3C2)cc1OC (stereo not given) | – | > 100 | > 100 | > 100 | > 100 | > 100 | > 100 | > 100 | > 100 | > 100 | – | – | – | – | – | – | – | – | – | –
19 | CC(=O)[C@]1(O)Cc2c(O)c3c(c(O)c2[C@@H](OC2CC(N)C(O)C(C)O2)C1)C(=O)c1c(OCc2ccccc2)cccc1C3=O (stereo not given in full) | 6.31 | 6.87 | 16 | 3.97 | 2.95 | – | 21.2 | – | 11.1 | 13.8 | – | – | – | – | – | – | – | – | – | –
20 | C=CCOC(=O)N1c2ccc(O)cc2[C@@]23O[C@@]24[C@@H]1C#C/C=C\C#C[C@]3(O)C(=O)C[C@@H]4C | > 100 | – | > 100 | > 100 | > 100 | > 100 | – | > 100 | > 100 | > 100 | – | – | – | – | – | – | – | – | – | –
21 | CCOC(=O)C1C(c2ccc(OC)cc2)c2c([nH]n(-c3ccccc3)c2=O)CC1(C)O (stereo not given) | > 100 | > 100 | > 100 | > 100 | > 100 | > 100 | – | > 100 | > 100 | > 100 | – | – | – | – | – | – | – | – | – | –

Source: PubChem BioAssay (NCI)
